# Reference: patent US10894036B2, “Use of marizomib for the treatment of central nervous system (CNS) cancers” (Celgene International II Sàrl, priority 2016, dated 2021)
# Several values for one entry are separate records, joined by “and”; a condition that tells them apart may be missing. Identical values can stand only once.
# Assays:
# [1] = test system: malignant glioma stem-like cells; experiment: HIF1-α and VEGF levels in malignant glioma stem-like cells; format: cell-based
# 20S Proteasome = experiment: 20S proteasome activity (% inhibition) in rodent brain; format: in vivo, mouse; parameters: 20S Proteasome Activity (% Inhibition), Blood, Trough / 20S Proteasome Activity (% Inhibition), Blood, Peak (2 hr) / 20S Proteasome Activity (% Inhibition), Tumor, Trough / 20S Proteasome Activity (% Inhibition), Tumor, Peak (2 hr): concentration or dose not given beside the values; settings: tumor-bearing mouse, IV; individual mice 1 and 2; listed as BTZ
# [2] = Phase 1b MRZ + TMZ (+RT) in newly diagnosed G4 MG: adverse events, DLT; format: in vivo, human
# Description: This is a Phase 1b, open-label, 3+3, dose-escalation followed by dose-expansion study in patients with newly diagnosed G4 MG who have not previously received any local or systemic therapy for their G4 MG. The study will examine the effect of the addition of MRZ to standard of care treatment utilizing two study arms: Concomitant Treatment in which MRZ will be combined with TMZ+RT and Adjuvant Treatment in which MRZ will be combined with TMZ. The study will be conducted in two Stages. In Stage 1 (Dose-Escalation): 3 to 6 evaluable patients per MRZ dose cohort will be enrolled in each study arm. […] A total of approximately 48 patients will be enrolled in Stages 1 and 2 combined. Patients may not be enrolled in more than 1 MRZ dose cohort per arm.
# Concomitant Treatment consists of a 6 week (42 day) treatment period, followed by a 4 (−1) week break from treatments. All patients will receive intravenous (IV) MRZ infusion on Days 1, 8, 15, 29, and 36 as a 10 minute infusion. IV hydration will be given prior to the infusion. Focal RT will be administered once daily, 5 days/week, for 30 doses over 6 weeks to a total dose of 60 Gy, starting on Day 1. TMZ will be administered once daily, 7 days/week, for 6 weeks, starting on Day 1, at a dose of 75 mg/m^2. Patients who complete Concomitant Treatment may continue on to Adjuvant Treatment.
# All patients will receive IV MRZ infusion on Days 1, 8, and 15 as a 10 minute infusion, in 28-day cycles. IV hydration will be given prior to the infusion. TMZ will be administered daily for 5 consecutive days, starting on Day 1 of Cycle 1 (C1D1), at a dose of 150 mg/m^2. If tolerated in Cycle 1, the TMZ dose will be increased on Day 1 of Cycle 2 (C2D1) to a dose of 200 mg/m^2.
# [3] = patient 301-C202, action taken None
smiles,measurement,setting,value
"CC(C)C[C@H](NC(=O)[C@H](Cc1ccccc1)NC(=O)c1cnccn1)B(O)O [bortezomib, reference compound]",HIF1-α and VEGF levels,[1],induces HIF1-α and VEGF levels
same,"20S Proteasome Activity (% Inhibition), Blood, Peak (2 hr)",20S Proteasome,81% and 83%
same,"20S Proteasome Activity (% Inhibition), Blood, Trough",20S Proteasome,18% and 13%
same,"20S Proteasome Activity (% Inhibition), Tumor, Peak (2 hr)",20S Proteasome,83% and 93%
same,"20S Proteasome Activity (% Inhibition), Tumor, Trough",20S Proteasome,64% and 41%
"Cn1nnc2c(C(N)=O)ncn2c1=O [temozolomide, reference compound]","Abdominal pain, Grade ≥3 TEAE, drug related","[2]; human, in vivo",0 (0.0%)
same,"Confusional state, treatment-related TEAE, number of patients","[2]; human, in vivo",0
same,"Confusional state, treatment-related TEAE, percent of patients","[2]; human, in vivo",(0.0%)
same,"Constipation, treatment-related TEAE, number of patients","[2]; human, in vivo",3
same,"Constipation, treatment-related TEAE, percent of patients","[2]; human, in vivo",(15.0%)
same,"Decreased appetite, treatment-related TEAE, number of patients","[2]; human, in vivo",4
same,"Decreased appetite, treatment-related TEAE, percent of patients","[2]; human, in vivo",(20.0%)
same,"Dehydration, Grade ≥3 TEAE, drug related","[2]; human, in vivo",0 (0.0%)
same,"Diarrhoea, treatment-related TEAE, number of patients","[2]; human, in vivo",2
same,"Diarrhoea, treatment-related TEAE, percent of patients","[2]; human, in vivo",(10.0%)
same,"Dizziness, treatment-related TEAE, number of patients","[2]; human, in vivo",2
same,"Dizziness, treatment-related TEAE, percent of patients","[2]; human, in vivo",(10.0%)
same,"Dose reduction, reason Adverse Event","[2]; human, in vivo",1 (5.0%)
same,"Fatigue, Grade ≥3 TEAE, drug related","[2]; human, in vivo",1 (5.0%)
same,"Fatigue, treatment-related TEAE, number of patients","[2]; human, in vivo",11
same,"Fatigue, treatment-related TEAE, percent of patients","[2]; human, in vivo",(55.0%)
same,"Hallucination, Grade ≥3 TEAE, drug related","[2]; human, in vivo",0 (0.0%)
same,"Hallucination, treatment-related TEAE, number of patients","[2]; human, in vivo",0
same,"Hallucination, treatment-related TEAE, percent of patients","[2]; human, in vivo",(0.0%)
same,"Headache, Grade ≥3 TEAE, drug related","[2]; human, in vivo",0 (0.0%)
same,"Headache, treatment-related TEAE, number of patients","[2]; human, in vivo",0
same,"Headache, treatment-related TEAE, percent of patients","[2]; human, in vivo",(0.0%)
same,"Insomnia, Grade ≥3 TEAE, drug related","[2]; human, in vivo",0 (0.0%)
same,"Muscular weakness, treatment-related TEAE, number of patients","[2]; human, in vivo",0
same,"Muscular weakness, treatment-related TEAE, percent of patients","[2]; human, in vivo",(0.0%)
same,"Musculoskeletal pain, Grade ≥3 TEAE, drug related","[2]; human, in vivo",0 (0.0%)
same,"Nausea, treatment-related TEAE, number of patients","[2]; human, in vivo",9
same,"Nausea, treatment-related TEAE, percent of patients","[2]; human, in vivo",(45.0%)
same,Number of Patients with drug Discontinued,"[2]; human, in vivo",0
same,Number of Patients with ≥1 Dose Reduction,"[2]; human, in vivo",1 (5.0%)
same,"Ovarian cyst, Grade ≥3 TEAE, drug related","[2]; human, in vivo",0 (0.0%)
same,"Pelvic infection, Grade ≥3 TEAE, drug related","[2]; human, in vivo",0 (0.0%)
same,"Platelet count decreased, Grade ≥3 TEAE, drug related","[2]; human, in vivo",1 (5.0%)
same,"Platelet count decreased, treatment-related TEAE, number of patients","[2]; human, in vivo",3
same,"Platelet count decreased, treatment-related TEAE, percent of patients","[2]; human, in vivo",(15.0%)
same,"Rash maculo-papular, treatment-related TEAE, number of patients","[2]; human, in vivo",3
same,"Rash maculo-papular, treatment-related TEAE, percent of patients","[2]; human, in vivo",(15.0%)
same,"Vomiting, Grade ≥3 TEAE, drug related","[2]; human, in vivo",0 (0.0%)
same,"Vomiting, treatment-related TEAE, number of patients","[2]; human, in vivo",7
same,"Vomiting, treatment-related TEAE, percent of patients","[2]; human, in vivo",(35.0%)
same,"SAE Dehydration, relationship to drug",[2]; in vivo,Not Suspected/
same,"SAE Fatigue, relationship to drug",[2]; in vivo,Not Suspected/
same,"SAE Hallucination, relationship to drug",[2]; in vivo,Not Suspected/
same,"SAE Nausea, relationship to drug",[2]; in vivo,Not Suspected/
same,"SAE Vomiting, relationship to drug",[2]; in vivo,Not Suspected/
same,"SAE Nephrolithiasis, relationship to drug","[2]; patient 104-C302, action taken None",Not Suspected/
same,"SAE Confusional state, relationship to drug","[2]; patient 301-A202, action taken None",Not Suspected/
same,"SAE Ovarian cyst, relationship to drug","[2]; patient 301-C202, action taken Dose Delayed",Not Suspected/
same,"SAE Convulsion, relationship to drug",[2]; [3],Not Suspected/
same,"SAE Pelvic infection, relationship to drug",[2]; [3],Not Suspected/
